{
  "source": "patent US20220023314A1",
  "about": "“STABLE FORMULATIONS OF ANESTHETICS AND […] FORMS” (HALO SCIENCE LLC, priority 2018, published 2022)",
  "origin": "cited, not measured here",
  "settings": "in vivo",
  "data": [
    {"smiles": "C[C@]12CC[C@@H](O)C[C@@H]1CC[C@H]1[C@@H]3CC[C@H](C(=O)CO)[C@@]3(C)CC(=O)[C@@H]12", "note": "[Alphadolone]", "values": [
      {"measurement": "potency relative to alphaxalone", "result": "half as potent"}
    ]}
  ]
}
